Measurements taken from US20250041281A1, “METHOD OF TREATING BILIARY TRACT CANCER” (J-PHARMA CO., LTD., priority 2023, published 2025).
“And” between values parts separate entries of the source, which are not always exact repeats. Equal entries are not always repeated. “Also recorded” adds a separate entry of the source.

Tests used:
[1] = cited from earlier work
[2] = test system: advanced biliary tract cancer refractory or intolerant to standard chemotherapy; test: Phase II randomized placebo-controlled trial, efficacy (PFS by BICR, OS, DCR); type: in vivo, human; parameters: disease control rate (DCR: CR+PR+SD) / Share of disease control patients with high LAT1 expression / Share of disease control patients with low LAT1 expression: concentration or dose not given beside the values
Protocol: (§1) As Phase II trial of Nanvuranlat, a multicenter, randomized, placebo-controlled, double-blind, parallel-group Phase II trial was conducted at 14 centers in Japan for patients with advanced biliary tract cancer who were refractory or intolerant of standard treatment. Patients were randomized in a 2:1 ratio to receive the drug or placebo using biliary tract cancer (BTC) subtype and resection status as allocation factors. The non-rapid (Slow and/or Intermediate) genotype was set as the NAT2 genotype for selection criteria, and based on the results of the PI study conducted earlier, 25 mg/m2 of Nanvuranlat or placebo was administered intravenously for 5 consecutive days and rested for 9 days (14 days: 1 cycle). Administration of the trial drug was continued until the discontinuation criteria were met. The primary endpoint was progression-free survival using RECIST 1.1 based on Blinded Independent Central Review. Images were obtained every 6 weeks from the start date and at discontinuation. PFS was defined as the date of the first documented progressive disease (PD) or death for any reason after randomization. The primary evaluation was conducted in the full analysis set (FAS) population, which consisted of all biliary tract cancer patients randomized to one of the arms. The safety evaluation was conducted in the SAFETY population, which was randomly assigned to one of the arms and received the trial drug. Nanvuranlat was used as monohydrochloride monohydrate.
Kaplan-Meier estimates corresponding to the event time points are calculated and plotted for each treatment group. Confidence intervals for the Kaplan-Meier estimates are constructed using the log-log method with standard errors approximated by the greenwood formula. Point estimates at the 25%, 50%, and 75% of survival time and 95% confidence intervals are obtained and presented in tabular form. The Brookmeyer and Crowley method is used to construct the confidence intervals for survival time percentiles.
Fitting to a stratified Cox proportional hazards model, the hazard ratio exp((β_drug)Λ) and its 95% confidence interval are estimated and presented in tabular and forest plot form, along with the p-value of the Wald test corresponding to the null hypothesis “β_drug=0; exp(β_drug)=1”.
Stratification factor 1: “Facility,” “Gall bladder cancer and other cancers,” and “Existence or nonexistence of primary tumor resection history” Stratification factor 2: “Biliary tract cancer subtype (intrahepatic biliary tract cancer, extrahepatic biliary tract cancer, […], or duodenal papillary carcinoma)” and “Existence or nonexistence of primary tumor resection history”
This test was a multicenter, randomized, double-blind, placebo-controlled, Phase II trial conducted at 14 major cancer centers/hospitals in Japan. Patients were randomly assigned to the Nanvuranlat or placebo group (2:1), stratified by BTC subtype and whether the primary cancer lesion had been resected, generated by an independent statistical group. Randomization to the two treatment groups was performed by IWRS (Interactive Web-based Response System) and generated by an independent statistical group.
Nanvuranlat 25 mg/m^2/day or placebo was administered intravenously for 5 consecutive days, followed by a 9-day rest period (=14 days: 1 cycle). The trial drug was administered by 90-minute infusion at the investigator's site (all patients were admitted during the first treatment cycle). Patients, drug administrators, and clinical trial coordinators were blinded to trial treatment. Nanvuranlat was used as monohydrochloride monohydrate.
Treatment with additional cycles was to continue until disease progression, the occurrence of other unacceptable toxicities, pregnancy confirmation, death, withdrawal of consent, loss to follow-up, unblinding of the trial, or termination of the trial, as determined by the investigator. […]

[3] = Phase II randomized placebo-controlled trial, safety (adverse events); type: in vivo
Protocol: as §1, with “The non-rapid (Slow and/or Intermediate) genotype was set as the NAT2 genotype for selection criteria, and based on the results of the PI study conducted earlier, 25 mg/m2 of Nanvuranlat or placebo was administered intravenously for 5 consecutive days and rested for 9 days (14 days: 1 cycle).” left out
The trial drug was administered by 90-minute infusion at the investigator's site (all patients were admitted during the first treatment cycle). Patients, drug administrators, and clinical trial coordinators were blinded to trial treatment. Nanvuranlat was used as monohydrochloride monohydrate.
Secondary endpoint was overall survival (OS), disease control rate (DCR) as assessed by BICR, and safety. […] Blood and urinary concentrations of Nanvuranlat and its metabolite N-acetyl-JPH203 (NAc-JPH203) were evaluated.
The primary efficacy analysis was performed using a full analysis set (FAS) population that included all randomly assigned BTC patients within their designated treatment group. The safety analysis population included all patients who received at least one trial treatment (safety population).
Statistics were used to summarize safety data, response rates, pharmacokinetic and pharmacodynamic data. Unless otherwise specified, all reported p-values are one-sided. Statistical analysis was performed using SAS software (version 9.4).

Compound: Nc1cc(COc2c(Cl)cc(C[C@H](N)C(=O)O)cc2Cl)c2oc(-c3ccccc3)nc2c1 [Nanvuranlat, O-(5-amino-2-phenylbenzoxazol-7-yl)methyl-3,5-dichloro-L-tyrosine]
- maximum tolerated dose ([1]; 17 patients with solid tumors): 60 mg/m^2
- Grade 3 hepatic dysfunction, number of patients ([1]; only in patients with the Rapid form of NAT2): two
- PFS hazard ratio (HR) by BICR vs placebo ([2]; FAS all patients n=104, 25 mg/m2 iv 5 days, 9 days rest): 0.557
- Median PFS ([2]; FAS, Nanvuranlat group n=69): 46.0 days
- progression-free survival rate at 1.5 months ([2]; FAS, Nanvuranlat group n=69): 53.6% and 62.3%
- progression-free survival rate at 3 months ([2]; FAS, Nanvuranlat group n=69): 14.5% and 23.2%
- Overall survival HR vs placebo, LAT1 high-expressing subgroup with IHC ([2]; IHC, LAT1 high): 0.35
- Number of patients with controlled diseases, LAT1 score 0 ([2]; LAT1 score 0): 1
- Number of patients with controlled diseases, LAT1 score 1 ([2]; LAT1 score 1): 2
- Number of patients with controlled diseases, LAT1 score 2 ([2]; LAT1 score 2): 0
- Number of patients with controlled diseases, LAT1 score 3 ([2]; LAT1 score 3): 0
- Number of patients with controlled diseases, LAT1 score 4 ([2]; LAT1 score 4): 2
- PFS HR by BICR vs placebo, LAT1 high expression subgroup ([2]; LAT1 score 4-9, n=65): 0.439
- Number of patients with controlled diseases, LAT1 score 6 ([2]; LAT1 score 6): 4
- Number of patients with controlled diseases, LAT1 score 9 ([2]; LAT1 score 9): 5
- Number of disease control patients with high LAT1 ([2]; Nanvuranlat group, LAT1 high): 11
- Number of patients with controlled diseases ([2]; Nanvuranlat group, total): 17
- disease control rate (DCR: CR+PR+SD) ([2]; by BICR, Nanvuranlat group): 24.6%
- PFS HR vs placebo, subgroup EHC ([2]; extrahepatic biliary tract cancer, 95% CI in brackets): 0.150 (0.0437-0.5153)
- Overall survival HR vs placebo ([2]; full population of FAS): 0.849
- PFS HR vs placebo, subgroup GBC ([2]; gall bladder cancer, 95% CI in brackets): 0.287 (0.1009-0.8183)
- PFS HR vs placebo, subgroup IHC ([2]; intrahepatic biliary tract cancer, 95% CI in brackets): 0.872 (0.4359-1.7458)
- Share of disease control patients with high LAT1 expression ([2]; of 17 disease control patients): 64.7%
- Share of disease control patients with low LAT1 expression ([2]; of 17 disease control patients): 17.6%
- Overall survival HR vs placebo, high LAT1 ([2]; only patients with high LAT1): 0.670
- PFS HR vs placebo, EHC and GBC integrated ([2]; patients with GBC/EHC): 0.218
- Grade 3 or higher treatment-related adverse events ([3]; fatigue, decreased platelet count, hypertension): three
- Abdominal discomfort, All grades ([3]; n = 70): 2 (2.9%) n (%)
- At least one adverse event, All grades ([3]; n = 70): 60 (85.7%) n (%)
- At least one adverse event, ≥ Grade 3 ([3]; n = 70): 21 (30.0%) n (%)
- Blood creatinine elevation, All grades ([3]; n = 70): 1 (1.4%) n (%)
- Cancer pain, All grades ([3]; n = 70): 6 (8.6%) n (%)
- Cancer pain, ≥ Grade 3 ([3]; n = 70): 1 (1.4%) n (%)
- Cholangitis, All grades ([3]; n = 70): 10 (14.3%) n (%)
- Cholangitis, ≥ Grade 3 ([3]; n = 70): 9 (12.9%) n (%)
- Constipation, All grades ([3]; n = 70): 10 (14.3%) n (%)
- Diarrhea, All grades ([3]; n = 70): 8 (11.4%) n (%)
- Diarrhea, ≥ Grade 3 ([3]; n = 70): 1 (1.4%) n (%)
- Fatigue, All grades ([3]; n = 70): 1 (1.4%) n (%)
- Fever, All grades ([3]; n = 70): 9 (12.9%) n (%)
- High blood pressure, All grades ([3]; n = 70): 5 (7.1%) n (%)
- High blood pressure, ≥ Grade 3 ([3]; n = 70): 2 (2.9%) n (%)
- Hypophagia, All grades ([3]; n = 70): 16 (22.9%) n (%)
- Insomnia, All grades ([3]; n = 70): 8 (11.4%) n (%)
- Malaise, All grades ([3]; n = 70): 11 (15.7%) n (%)
- Malaise, ≥ Grade 3 ([3]; n = 70): 1 (1.4%) n (%)
- Nasopharyngitis, All grades ([3]; n = 70): 1 (1.4%) n (%)
- Nausea, All grades ([3]; n = 70): 9 (12.9%) n (%)
- Pruritus, All grades ([3]; n = 70): 5 (7.1%) n (%)
- Rash, All grades ([3]; n = 70): 2 (2.9%) n (%)
- Stomatitis, All grades ([3]; n = 70): 4 (5.7%) n (%)
- Tumor pain, All grades ([3]; n = 70): 1 (1.4%) n (%)
- Vomiting, All grades ([3]; n = 70): 5 (7.1%) n (%)
- adverse events of Grade 3 or higher ([3]; safety population n=70): 30.0%
- frequency of all adverse events ([3]; safety population n=70): 85.7%
- serious adverse events ([3]; safety population n=70): 21.4%
- treatment-related adverse events ([3]; safety population n=70): 41.4%
- discontinuations or dose reductions ([3]; trial observation period): no discontinuations or dose reductions; also recorded: Neither discontinuations nor dose reductions were considered as treatment related
- treatment-related deaths ([3]; trial observation period): no deaths suspected to be related to Nanvuranlat; also recorded: No treatment-related deaths; also recorded: no deaths or discontinuations linked to treatment
